Laboratory results taken from the NIST ThermoML archive (doi:10.1016/j.jct.2015.05.004).

Test: xn = mol fraction of the nth substance listed
Settings: 100 kPa, Liquid; for speed of sound: Frequency=3 MHz, Sing-around technique in a fixed-path interferometer; for mass density: Vibrating tube method

CCCCn1cc[n+](C)c1.N#C[S-] [1-butyl-3-methylimidazolium thiocyanate] + CCC(=O)O
Settings | mass density, 293.15 K [kg/m3] | mass density, 298.15 K [kg/m3] | mass density, 303.15 K [kg/m3] | mass density, 308.15 K [kg/m3] | mass density, 313.15 K [kg/m3] | speed of sound, 293.15 K [m/s] | speed of sound, 298.15 K [m/s] | speed of sound, 303.15 K [m/s] | speed of sound, 308.15 K [m/s] | speed of sound, 313.15 K [m/s]
x1 = 0.0698 | 1015.42 | 1010.77 | 1006.13 | 1001.49 | 996.86 | 1260.2 | 1243 | 1225.7 | 1208.3 | 1191
x1 = 0.1444 | 1031.52 | 1027.32 | 1023.13 | 1018.95 | 1014.78 | 1361.3 | 1345.7 | 1329.8 | 1313.9 | 1298.1
x1 = 0.2223 | 1042.18 | 1038.27 | 1034.37 | 1030.48 | 1026.6 | 1445.8 | 1431.2 | 1416.3 | 1401.5 | 1386.8
x1 = 0.306 | 1049.78 | 1046.09 | 1042.4 | 1038.73 | 1035.07 | 1514.4 | 1500.5 | 1486.3 | 1472.3 | 1458.3
x1 = 0.3989 | 1055.66 | 1052.15 | 1048.65 | 1045.17 | 1041.69 | 1571.4 | 1558.1 | 1544.6 | 1531.1 | 1517.8
x1 = 0.5022 | 1060.19 | 1057.09 | 1053.43 | 1050.09 | 1046.79 | 1619.3 | 1606.6 | 1593.7 | 1580.8 | 1568.1
x1 = 0.6068 | 1064.02 | 1061.09 | 1057.85 | 1054.64 | 1051.44 | 1662 | 1649.6 | 1637 | 1624.6 | 1612.2
x1 = 0.7166 | 1067.2 | 1064.46 | 1061.32 | 1058.2 | 1055.09 | 1700.9 | 1688.8 | 1676.4 | 1664.2 | 1652.1
x1 = 0.8561 | 1070.36 | 1067.84 | 1064.79 | 1061.76 | 1058.74 | 1742.8 | 1730.9 | 1718.9 | 1707 | 1695.1
x1 = 0.9209 | 1071.7 | 1069.3 | 1066.3 | 1063.3 | 1060.33 | 1761.8 | 1750 | 1738.1 | 1726.3 | 1714.6
x1 = 1 | 1072.74 | 1070.34 | 1067.37 | 1064.42 | 1061.47 | 1778.8 | 1767.2 | 1755.4 | 1743.7 | 1732.1

CC(=O)O [acetic acid] + CCCCn1cc[n+](C)c1.N#C[S-]
x2 = 0
Settings | mass density [kg/m3] | speed of sound [m/s]
293.15 K | 1049.75 | 1152.7
298.15 K | 1044.13 | 1135.7
303.15 K | 1038.48 | 1118.4
308.15 K | 1032.83 | 1101.2
313.15 K | 1027.18 | 1084

CCC(=O)O [propanoic acid] + CCCCn1cc[n+](C)c1.N#C[S-]
x2 = 0
Settings | mass density [kg/m3] | speed of sound [m/s]
293.15 K | 993.33 | 1164.7
298.15 K | 987.94 | 1146
303.15 K | 982.54 | 1127.1
308.15 K | 977.14 | 1108.3
313.15 K | 971.75 | 1089.6
